{
  "source": "ChEMBL document CHEMBL2346632",
  "about": "“A one-pot domino synthesis and discovery of highly functionalized dihydrobenzo[b]thiophenes as AChE inhibitors” (Bioorg Med Chem Lett, 2013)",
  "data": [
    {"target": "Acetylcholinesterase (Electrophorus electricus, UniProt O42275)", "sequence (O42275 whole entry)": "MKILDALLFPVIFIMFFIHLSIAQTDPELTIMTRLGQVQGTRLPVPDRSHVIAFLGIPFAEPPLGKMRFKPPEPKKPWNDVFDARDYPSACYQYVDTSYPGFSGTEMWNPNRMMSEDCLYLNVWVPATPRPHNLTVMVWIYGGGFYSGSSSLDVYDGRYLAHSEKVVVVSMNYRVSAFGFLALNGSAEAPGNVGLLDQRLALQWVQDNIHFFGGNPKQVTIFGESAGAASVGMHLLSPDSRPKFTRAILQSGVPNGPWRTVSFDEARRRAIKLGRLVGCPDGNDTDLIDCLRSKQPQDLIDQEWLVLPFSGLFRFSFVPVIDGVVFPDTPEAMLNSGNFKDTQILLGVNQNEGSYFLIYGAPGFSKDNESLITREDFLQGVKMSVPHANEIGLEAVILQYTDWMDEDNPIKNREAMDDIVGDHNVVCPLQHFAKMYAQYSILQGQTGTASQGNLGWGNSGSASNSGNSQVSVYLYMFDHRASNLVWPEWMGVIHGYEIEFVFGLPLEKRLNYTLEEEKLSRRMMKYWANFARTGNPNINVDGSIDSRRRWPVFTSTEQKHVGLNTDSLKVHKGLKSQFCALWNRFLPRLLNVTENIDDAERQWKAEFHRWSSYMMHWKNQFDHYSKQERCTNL", "test": "Inhibition of electric eel AChE after 30 mins by Ellman's method", "units": {"IC50": "µM"}, "values": [
      {"smiles": "COc1ccc(-c2c(C#N)c(N)c(C#N)c3c2SC(c2ccccc2)C3)cc1", "note": "(racemic)", "IC50": 5.11},
      {"smiles": "N#Cc1c(N)c(C#N)c(-c2ccc(Cl)cc2)c2c1CC(c1ccccc1)S2", "note": "(racemic)", "IC50": 29.2},
      {"smiles": "N#Cc1c(N)c(C#N)c(-c2ccc(F)cc2)c2c1CC(c1ccccc1)S2", "note": "(racemic)", "IC50": 32.3},
      {"smiles": "N#Cc1c(N)c(C#N)c(-c2ccc(Br)cc2)c2c1CC(c1ccccc1)S2", "note": "(racemic)", "IC50": 37.9},
      {"smiles": "CC(C)c1ccc(-c2c(C#N)c(N)c(C#N)c3c2SC(c2ccccc2)C3)cc1", "note": "(racemic)", "IC50": 37.1},
      {"smiles": "Cc1ccc(-c2c(C#N)c(N)c(C#N)c3c2SC(c2ccc(C)cc2)C3)cc1", "note": "(racemic)", "IC50": 4.24},
      {"smiles": "COc1ccc(-c2c(C#N)c(N)c(C#N)c3c2SC(c2ccc(C)cc2)C3)cc1", "note": "(racemic)", "IC50": 11.3},
      {"smiles": "Cc1ccc(C2Cc3c(C#N)c(N)c(C#N)c(-c4ccc(Cl)cc4)c3S2)cc1", "note": "(racemic)", "IC50": 13.6},
      {"smiles": "Cc1ccc(C2Cc3c(C#N)c(N)c(C#N)c(-c4ccc(F)cc4)c3S2)cc1", "note": "(racemic)", "IC50": 18.1},
      {"smiles": "Cc1ccc(C2Cc3c(C#N)c(N)c(C#N)c(-c4ccc(Br)cc4)c3S2)cc1", "note": "(racemic)", "IC50": 24.2},
      {"smiles": "CC(C)c1ccc(C2Cc3c(C#N)c(N)c(C#N)c(-c4ccc(Cl)cc4)c3S2)cc1", "note": "(racemic)", "IC50": 48.3},
      {"smiles": "CC(C)c1ccc(C2Cc3c(C#N)c(N)c(C#N)c(-c4ccc(F)cc4)c3S2)cc1", "note": "(racemic)", "IC50": 44.2},
      {"smiles": "Cc1ccc(-c2c(C#N)c(N)c(C#N)c3c2SC(c2ccc(Cl)cc2)C3)cc1", "note": "(racemic)", "IC50": 17.3},
      {"smiles": "COc1ccc(-c2c(C#N)c(N)c(C#N)c3c2SC(c2ccc(Cl)cc2)C3)cc1", "note": "(racemic)", "IC50": 26.6},
      {"smiles": "N#Cc1c(N)c(C#N)c(-c2ccc(Cl)cc2)c2c1CC(c1ccc(Cl)cc1)S2", "note": "(racemic)", "IC50": 34.1},
      {"smiles": "N#Cc1c(N)c(C#N)c(-c2ccc(F)cc2)c2c1CC(c1ccc(Cl)cc1)S2", "note": "(racemic)", "IC50": 39.2},
      {"smiles": "N#Cc1c(N)c(C#N)c(-c2ccc(Br)cc2)c2c1CC(c1ccc(Cl)cc1)S2", "note": "(racemic)", "IC50": 41.3},
      {"smiles": "COc1ccc(C2Cc3c(C#N)c(N)c(C#N)c(-c4ccc(C)cc4)c3S2)cc1", "note": "(racemic)", "IC50": 11.6},
      {"smiles": "COc1ccc(-c2c(C#N)c(N)c(C#N)c3c2SC(c2ccc(OC)cc2)C3)cc1", "note": "(racemic)", "IC50": 4.16},
      {"smiles": "Cc1ccc(-c2c(C#N)c(N)c(C#N)c3c2SC(c2ccccc2)C3)cc1", "note": "(racemic)", "IC50": 9.62}
    ]}
  ]
}
